pIC50: −log10 of the molar value.
Columns and labels:
Assay type in all cases: cell-based
MDA-MB-231 = assay: Cytotoxicity secondary screen (IC50); settings: Homo sapiens, 48 h exposure, mean of triplicates, NE: no effect
PC3 [1] = assay: Cytotoxicity secondary screen (IC50); settings: Homo sapiens, PC-3; 48 h exposure, mean of triplicates; NE: no effect
Description: (§1) Cell culture. Skin normal fibroblastic cells are purchased from Lonza (Basel, Switzerland), HuH-7, Caco-2, MDA-MB-231, HCT-116, PC3, MCF7 and NCI-H727 cancer cell lines were obtained from ATCC (American Type Culture Collection). Cells are grown at 37 °C, 5% CO2 in ATCC recommended media: DMEM for HuH-7, MDA-MB-231, MDA-MB-468 and fibroblast, EMEM for MCF7 and CaCo-2, McCoy’s for HCT-116 and RPMI for PC3 and NCI-H727. All culture media are supplemented by 10% of FBS, 1% of penicillin-streptomycin and 2 mM glutamine.
(§2) Both studies have been performed following the protocols described in a previous paper, see ref. [2].

HuH-7 = assay: Cytotoxicity secondary screen (IC50); settings: Homo sapiens, 48 h exposure, mean of triplicates, NE: no effect
Description: as §1, §2

normal human fibroblasts = assay: Cytotoxicity secondary screen (IC50); settings: Fibroblast, 48 h exposure, mean of triplicates, NE: no effect, highest concentration tested 25 μM, read-out: IC50 Fibro
Description: as §1, §2

MDA-MB-468 = assay: Cytotoxicity secondary screen (IC50); settings: Homo sapiens, 48 h exposure, mean of triplicates, NE: no effect
Caco-2 [2] = assay: Cytotoxicity secondary screen (IC50); settings: Homo sapiens, 48 h exposure, mean of triplicates, NE: no effect
Description: (§3) Next, we performed a cytotoxicity screening of the nineteen molecules 4a–s, at 25 μM, investigating seven representative cancer cell lines: hepatocellular carcinoma HuH-7, colorectal adenocarcinoma CaCo-2, breast carcinoma MDA-MB-231 and MDA-MB-468, colorectal carcinoma HCT-116, prostate carcinoma PC3 and breast carcinoma MCF7. […] For details see: ref. [2] and Supporting Information File 1, Table S1.
as §1, §2

HCT-116 = assay: Cytotoxicity secondary screen (IC50); settings: Homo sapiens, 48 h exposure, mean of triplicates, NE: no effect
Description: as §3, §1, §2

MCF7 [3] = assay: Cytotoxicity secondary screen (IC50); settings: Homo sapiens, 48 h exposure, mean of triplicates, NE: no effect
MCF7 [4] = assay: Cytotoxicity primary screen (single dose); settings: Homo sapiens, single dose 25 μM, 48 h exposure, mean of triplicates, read-out: percentage of cell survival over DMSO control, MCF7
Description: as §3, §1, §2
(§4) Table S1: Cytotoxicity studies (single dose at 25µM) of N-arylbenzo[h]quinazolin-2-amines 4a–s
(§5) The toxicity is expressed as the percentage of cell survival (from 100 % to 0 %) over DMSO control after 48 h exposure (mean of triplicates).
(§6) Effect of the solvent (DMSO) was studied at 0.25%.

PC3 [5] = assay: Cytotoxicity primary screen (single dose); settings: Homo sapiens, PC-3; single dose 25 μM, 48 h exposure, mean of triplicates; read-out: percentage of cell survival over DMSO control, PC3
Description: as §3, §1, §2, §4, §5, §6

MDA468 = assay: Cytotoxicity primary screen (single dose); settings: single dose 25 μM, 48 h exposure, mean of triplicates; read-out: percentage of cell survival over DMSO control, MDA468
Description: as §3, §1, §2, §4, §5, §6

HCT116 = assay: Cytotoxicity primary screen (single dose); settings: Homo sapiens, HCT-116; single dose 25 μM, 48 h exposure, mean of triplicates; read-out: percentage of cell survival over DMSO control, HCT116
Description: as §3, §1, §2, §4, §5, §6

MDA231 = assay: Cytotoxicity primary screen (single dose); settings: Homo sapiens, MDA-MB-231; single dose 25 μM, 48 h exposure, mean of triplicates; read-out: percentage of cell survival over DMSO control, MDA231
Description: as §3, §1, §2, §4, §5, §6

Caco-2 [6] = assay: Cytotoxicity primary screen (single dose); settings: single dose 25 μM, 48 h exposure, mean of triplicates
Description: as §3, §1, §2, §4, §5, §6

HuH7 = assay: Cytotoxicity primary screen (single dose); settings: Homo sapiens, Huh-7; single dose 25 μM, 48 h exposure, mean of triplicates; read-out: percentage of cell survival over DMSO control, HuH7
Description: as §3, §1, §2, §4, §5, §6

Compound	pIC50 (MDA-MB-231)	pIC50 (PC3 [1])	pIC50 (HuH-7)	pIC50 (normal human fibroblasts)	pIC50 (MDA-MB-468)	pIC50 (Caco-2 [2])	pIC50 (HCT-116)	pIC50 (MCF7 [3])	viability at 25 µM (MCF7 [4]) [%]	viability at 25 µM (PC3 [5]) [%]	viability at 25 µM (MDA468) [%]	viability at 25 µM (HCT116) [%]	viability at 25 µM (MDA231) [%]	percentage of cell survival over DMSO control, CaCo-2 (Caco-2 [6]) [%]	viability at 25 µM (HuH7) [%]
Cc1ccccc1Nc1ncc2ccc3ccccc3c2n1 [Compound 4b, N-(o-tolyl)benzo[h]quinazolin-2-amine]	< 4.60	< 4.60	< 4.60	< 4.60	< 4.60	< 4.60	< 4.60	< 4.60	70	72	93	79	86	56	69
Cc1cccc(Nc2ncc3ccc4ccccc4c3n2)c1 [Compound 4c, N-(m-tolyl)benzo[h]quinazolin-2-amine]	< 4.60	< 4.60	< 4.60	< 4.60	4.66	4.55	4.74	4.52	50	60	65	52	81	50	68
Cc1ccc(Nc2ncc3ccc4ccccc4c3n2)cc1 [Compound 4d, N-(p-tolyl)benzo[h]quinazolin-2-amine]	< 4.60	4.52	< 4.60	< 4.60	4.51	< 4.60	5.30	< 4.60	61	65	72	54	67	63	85
COc1ccccc1Nc1ncc2ccc3ccccc3c2n1 [Compound 4e, N-(2-methoxyphenyl)benzo[h]quinazolin-2-amine]	4.60	< 4.60	< 4.60	< 4.60	4.60	4.70	4.59	4.66	82	21	46	8	40	59	55
COc1cccc(Nc2ncc3ccc4ccccc4c3n2)c1 [Compound 4f, N-(3-methoxyphenyl)benzo[h]quinazolin-2-amine]	< 4.60	4.59	4.64	< 4.60	4.48	5.37	5.00	< 4.60	78	54	73	29	77	59	59
COc1ccc(Nc2ncc3ccc4ccccc4c3n2)cc1 [Compound 4g, N-(4-methoxyphenyl)benzo[h]quinazolin-2-amine]	–	–	–	–	–	–	–	–	83	82	90	72	87	81	79
Fc1ccccc1Nc1ncc2ccc3ccccc3c2n1 [Compound 4h, N-(2-fluorophenyl)benzo[h]quinazolin-2-amine]	< 4.60	< 4.60	< 4.60	< 4.60	< 4.60	5.34	< 4.60	< 4.60	83	74	94	82	83	48	81
Fc1ccc(Nc2ncc3ccc4ccccc4c3n2)cc1 [Compound 4j, N-(4-fluorophenyl)benzo[h]quinazolin-2-amine]	–	–	–	–	–	–	–	–	81	78	95	81	91	77	92
Clc1ccccc1Nc1ncc2ccc3ccccc3c2n1 [Compound 4k, N-(2-chlorophenyl)benzo[h]quinazolin-2-amine]	< 4.60	< 4.60	< 4.60	< 4.60	< 4.60	< 4.60	< 4.60	< 4.60	56	73	93	83	91	61	76
Clc1cccc(Nc2ncc3ccc4ccccc4c3n2)c1 [Compound 4l, N-(3-chlorophenyl)benzo[h]quinazolin-2-amine]	< 4.60	4.59	4.66	< 4.60	4.59	4.77	4.62	4.74	68	59	78	56	67	38	71
Clc1ccc(Nc2ncc3ccc4ccccc4c3n2)cc1 [Compound 4m, N-(4-chlorophenyl)benzo[h]quinazolin-2-amine]	–	–	–	–	–	–	–	–	88	74	88	68	83	75	96
Fc1ccc(Nc2ncc3ccc4ccccc4c3n2)cc1F [Compound 4n, N-(3,4-difluorophenyl)benzo[h]quinazolin-2-amine]	–	–	–	–	–	–	–	–	97	82	85	82	91	72	79
Fc1cc(Cl)cc(Nc2ncc3ccc4ccccc4c3n2)c1 [Compound 4p, N-(3-chloro-5-fluorophenyl)benzo[h]quinazolin-2-amine]	–	–	–	–	–	–	–	–	91	59	72	17	68	54	80
Cc1cc(Nc2ncc3ccc4ccccc4c3n2)ccc1Br [Compound 4r, N-(4-bromo-3-methylphenyl)benzo[h]quinazolin-2-amine]	–	–	–	–	–	–	–	–	85	89	96	100	101	76	80
Fc1cc(Nc2ncc3ccc4ccccc4c3n2)cc(F)c1F [Compound 4s, N-(3,4,5-trifluorophenyl)benzo[h]quinazolin-2-amine]	–	–	–	–	–	–	–	–	54	50	78	63	78	65	77
